Several values for one entry are separate records, joined by “and”; a condition that tells them apart may be missing. Equal entries are not always repeated. Where two headings read alike, the source gives them in different places. One block for each molecule: values may come before it.
Legend:
[1] = 0-24h, oral, cited from earlier work
[2] = Serum and intratumor drug concentration at experimental endpoint, SW620 model; format: in vivo, mice; details: for concentration at 1 h / Kp at 1 h: Swiss Nu/nu, mouse, oral; for concentration at 1 h: 1h post-treatment at endpoint (day 19); for Kp at 1 h: tumor vs serum, read-out: ratio tumor vs serum; for Kp at 1 h / ratio ODC vs single drug: SW620 model
Method: At the experimental endpoint, plasma and tumors were collected 1h post‐treatment and part of the tumor tissue was used to determine the intratumor drug concentrations. Plasma and tumor samples were analyzed using the same LC‐MS/MS method used for drug determination in DBS. Before analysis, tumor tissues were homogenized in a 1 mL mixture of water/acetonitrile (30/70). Hundred uL of homogenates were transferred into new tubes and 50 µL of acetonitrile, as well as 50 µL of a mix of internal standards in MeOH were added. Tubes were vortexed and centrifuged for 10 min at 9,000 rpm. The supernatant (100 µL) was evaporated under nitrogen and reconstituted in 100 µL of acetonitrile with 0.1% formic acid/water with 0.1% formic acid (30/70). 10 µL was then injected into the LC‐MS/MS system. Plasma samples were spotted onto the same paper used for whole blood analysis and were extracted and analyzed using the same methods as used for DBS.

SW620 tumors = assay: Subcutaneous xenograft tumor growth; format: in vivo, Swiss nu/nu mice
Method: All procedures including animal use were performed in accordance with the Institutional Ethical Committee of Animal Care in Geneva and the Swiss Cantonal Veterinary Office (Authorization number GE‐136‐19). Briefly, female and male Swiss nu/nu mice aged 6–8 weeks were obtained from Charles River (Écully, France). For subcutaneous xenografts mice were inoculated in the left flank with 5x10^6 DLD1 or SW620 cells suspended in 100 µL of cell culture medium, supplemented with 1% FBS. Treatment was initiated when palpable tumors had formed (approximately 30 mm^3) on day 4 for DLD1 and day 5 for the SW620 model.
Treatment was initiated once tumor growth was confirmed with bioluminescence measurements. Drugs were administered through oral gavage based on average body weight of the males (100 µL/mouse) and females (80 µL/mouse) at various concentrations, see Tables S10 and S11.
Solution A: step (1) 30% PEG 400 + 5% propylene glycol + 0.5% Tween 80 and (2) 64.5% sterile H2O. Solution B: step (1) 10% DMSO, (2) 30% PEG 300 + 5% Tween 80 and (3) 55% sterile H2O. Vemurafenib was prepared 2x concentrated (half or three/sixth of total solution), and the remaining drugs were prepared 6x concentrated (one/sixth of total solution), after which drugs were diluted to prepare 1x drug concentrations for the ODC or single drugs using the other drugs or complete solvent solutions without drugs for lower concentrations. FOLFOX was administered as 6 mg/kg oxaliplatin two hours before administration of 90 mg/kg leucovorin and 50 mg/kg (DLD1) or 25 mg/kg (SW620) 5‐fluorouracil at day 1 and a repeat of 5‐fluorouracil dosing on day 2.
The Bliss independence model can be used to evaluate the drug interaction potential of a drug mixture. The model is based on the principle that each drug has an independent drug mechanism of action, but all contribute to a common result (e.g., cell death or tumor volume inhibition). The model is based on the probability theory and requires the drug activity of each drug at the selected dose to predict the inhibition rate (IR) at additive doses. For in vivo tumor volume results, we predicted the IR based on the fraction of tumor volume remaining after single‐drug treatment of each of the drugs vs 100% CTRL (F1,2,3,4), using the following formula: IR = […].

[3] = Clinical plasma pharmacokinetics in patients, plasma concentration limit calculation; format: in vivo; details: average plasma concentration calculated from AUC0-24h in patients
Method: To select for clinically relevant doses, the clinically attainable drug concentration measured in the blood plasma of patients after treatment is used to calculate the concentration limit for in vitro experiments. […] The average drug concentration is calculated from the AUC0–24h and is implemented as the plasma concentration limit (PCL) which drug dose selection must remain below for in vitro experiments. If a drug is FDA approved, the AUC0–24h selected is the one corresponding to the recommended dose in clinical practice. If a drug is in clinical trials, the AUC0–24h selected is the one corresponding to the maximum tolerated dose in early stage clinical trials. Note, experiments were conducted with the most current PCL calculated from the AUC0–24h information available at the start of experiments (December 2017), see Table S4.

[4] = Pharmacokinetics, dried blood spot LC-MS/MS, mice with SW620 tumors; format: in vivo; details: for Tmax / AUC(0-t) / Cmax: Swiss Nu/nu, mouse, whole blood (dried blood spot), po, 10 mg/kg, regorafenib 30, vemurafenib 75, GDC-0994 10 mg/kg; for AUC(0-t) / Cmax: whole blood, mean ± SD; for AUC(0-t): oral, read-out: AUC0-24h
Method: The pharmacokinetic (PK) study was performed using the dried blood spot method. Mice were treated with CTRL, ODCs, and corresponding monotherapies as described above. To determine the disposition in blood in the first 24h, blood samples (5 µL/mouse) were collected from the tail vein (n = 4 mice) at 2h, 4h, 8h, and 24h time points and transferred onto paper (a filter paper 903 protein saver card from Whatman (MA, USA)). A disk with the entire spot was punched from the paper card and transferred to the HPLC vial tube. Hundred µL of MeOH containing a mix of internal standards was added, and the tube was vortex‐mixed for about 1 min before injecting 10 µL into the LC‐MS/MS system. The LC‐MS/MS system consisted of an API 4,000 triple quadrupole mass spectrometer (AB sciex, Concord, ON, Canada) controlled by analyst 1.6.1 software. The mass spectrometer was operated in the multiple reaction monitoring (MRM) mode with positive electrospray ionization. The instrument was coupled with an Agilent series 1100 (Waldbronn, Germany) LC system. Chromatography was performed on a Phenomenex Kinetex C18 analytical column (50 mm x 2.1 mm, 2.6 um; Torrance, CA, USA). The flow rate was 0.5 mL/min using gradient elution conditions. The method was fully validated before application to this pharmacokinetic study.

[5] = GDC-0994 10 mg/kg, Exp 6, Day 20
[6] = GDC-0994 10 mg/kg, Exp 8, Day 19
[7] = GDC-0994 20 mg/kg, Exp 4, Day 22
[8] = given as part of SW620-specific ODC

Compound: Cn1c(=O)n(-c2ccc(C(C)(C)C#N)cc2)c2c3cc(-c4cnc5ccccc5c4)ccc3ncc21 [BEZ-235]
- AUC ([1]; 400 mg/kg once daily, ref 16): 741.3 ng·h/mL
- AUC ([1]; 400 mg/kg once daily, ref 17): 1404.4 ng·h/mL

- concentration at 1 h ([2]; serum, 10 mg/kg, as part of ODC, regorafenib 30, selumetinib 0.2, vemurafenib 75, GDC-0994 10 mg/kg, read-out: concentration serum): 19400 ± 9390 ng/mL
- concentration at 1 h ([2]; serum, 10 mg/kg, single drug, regorafenib 30, selumetinib 0.2, vemurafenib 75, GDC-0994 10 mg/kg, read-out: concentration serum): 15900 ± 9070 ng/mL
- concentration at 1 h ([2]; tumor (SW620), as part of ODC, SW620 tumor, doses as E164, read-out: concentration tumor): 5560 ± 3000 ng/g
- concentration at 1 h ([2]; tumor (SW620), single drug, SW620 tumor, doses as E164, read-out: concentration tumor): 12700 ± 2870 ng/g
- Kp at 1 h ([2]; as part of ODC): 0.29
- Kp at 1 h ([2]; single drug): 0.8
- ratio ODC vs single drug ([2]; serum): 1.22
- ratio ODC vs single drug ([2]; tumor): 0.44
- PCL (plasma concentration limit) [3]: 2.02 µM and 2.0 µM
- Tmax [4, 8]: 2 h
- AUC(0-t) [4, 8]: 45000 ± 9090 ng·h/mL
- Cmax [4, 8]: 6610 ± 1110 ng/mL
- Tmax ([4]; mono): 2 h
- AUC(0-t) ([4]; mono): 31600 ± 4740 ng·h/mL
- Cmax ([4]; mono): 6090 ± 1930 ng/mL
- increase of AUC as part of the ODC vs single-drug treatment ([4]; mice bearing SW620 tumors, AUC0-24h): 1.4 x
Compound: Cn1nccc1Nc1nccc(-c2ccn([C@H](CO)c3ccc(Cl)c(F)c3)c(=O)c2)n1 [GDC-0994, (S)-1-(1-(4-Chloro-3-fluorophenyl)-2-hydroxyethyl)-4-(2-((1-methyl-1H-pyrazol-5-yl)amino)pyrimidin-4-yl)pyridin-2(1H)-one]
- % CTRL (tumor volume) (SW620 tumors; [5]): 56 33 15 % CTRL
- Volume (SW620 tumors; [5]): 290 170 76 mm^3
- % CTRL (tumor volume) (SW620 tumors; [6]): 56 18 7 % CTRL
- Volume (SW620 tumors; [6]): 354 114 46 mm^3
- % CTRL (tumor volume) (SW620 tumors; [7]): 62 31 22 % CTRL
- Volume (SW620 tumors; [7]): 301 148 105 mm^3

- PCL (plasma concentration limit) [3]: 0.43 µM and 0.4 µM
Compound: CC1(COc2ccc3c(c2)ncn3-c2ccc3cccc(N4CCC(N)CC4)c3n2)COC1 [crenolanib]
- AUC ([1]; 100 mg/kg twice daily): 3200 ng·h/mL
- AUC ([1]; 200 mg/kg once daily): 4610 ng·h/mL

- PCL (plasma concentration limit) [3]: 8.31 µM and 8.3 µM
Compound: Clc1ccc(Nc2nnc(Cc3ccncc3)c3ccccc23)cc1 [vatalanib]
- AUC ([1]; 1,000 mg/kg once daily): 52900 ng·h/mL
- AUC ([1]; 1,200 mg/kg once daily): 69200 ng·h/mL

- PCL (plasma concentration limit) [3]: 0.19 µM and 0.2 µM
Compound: O=C(CCCCCCC(=O)Nc1ccccc1)NO [vorinostat]
- AUC ([1]; 200 mg/kg twice daily): 4.61 µM·h
